Results taken from patent publication US20080194590A1, “4-Piperazinylthieno [2,3-D] Pyrimidine Compounds as Platelet Aggregation Inhibitors” (Pfizer Inc, priority 2005, published 2008).
“And” between values parts separate entries of the source, which are not always exact repeats. Identical values can stand only once.

How the values were obtained:
P2Y12 receptor [1] = biological target: T1, P2Y12 receptor (Homo sapiens, UniProt Q9H244); assay: Human P2Y12 recombinant cell membrane binding assay with 33P 2MeS-ADP (Assay 3); set-up: expressed in transfected cells; host or cells: HEK cells; conditions: for IC50 / Ki: HEK cell membranes expressing P2Y12, multiple lines = multiple runs; for inhibition at 10 µM / [33P]-2MeS-ADP Binding to Recombinant Human P2Y12 Membranes (Assay 3) % Inhibition: highest concentration tested 10 μM; for inhibition at 10 µM: read-out: [33P]-2MeS-ADP Binding to Recombinant Human P2Y12 Membranes (Assay 3) % Inhibition
Procedure: 3. Human P2Y12 Recombinant Cell Membrane Binding Assay with ^33P 2MeS-ADP.
The ability of a test compound to bind to the P2Y12 receptor was evaluated in a recombinant cell membrane binding assay. In this competitive binding assay, the test compound competed against a radiolabelled agonist for binding to the P2Y12 receptor, expressed on the cell membrane. Inhibition of binding of the labeled material was measured and correlated to the amount and potency of the test compound. Data from this assay are presented in Table F. This binding assay is a modification of the procedure in Takasaki, J. et. al, Mol. Pharmacol., 2001, Vol. 60, pg. 432.
HEK cells were transfected with the pDONR201P2Y12 vector and cultured in MEM with GlutaMAX I, Earle's salts, 25 mM HEPES (Gibco # 42360-032) containing 10% dialyzed FBS (Gibco # 26400-044), 100 μM nonessential amino acids (Gibco # 11140-050), 1 mM sodium pyruvate (Gibco # 11360-070), 0.05% geneticin (Gibco #10131-027), 3 μg/mL blasticidin (Fluka brand from Sigma # 15205), and 0.5 μg/mL puromycin (Sigma # P-8833).
Confluent cells were washed once with cold DPBS (Gibco # 14190-136). Fresh DPBS was added and the cells were scraped and centrifuged at 500×g for 5 minutes at 4° C. The cell pellets were resuspended in TEE buffer (25 mM Tris, 5 mM EDTA, 5 mM EGTA) containing 1 protease inhibitor cocktail tablet (Roche # 1 873 580) per 50 mL (called TEE+Complete) and can be flash frozen at this point.
In one embodiment, frozen cell pellets were used to prepare the membranes. In that embodiment, the frozen cell pellets were thawed on ice. In another embodiment, cell pellets may be used without flash freezing before moving on to the next step.
Cell pellets were resuspended in TEE buffer+Complete and homogenized in a glass dounce for 12 strokes. The cell suspension was centrifuged at 500×g for 5 minutes at 4° C. The supernatant was saved and centrifuged at 20,000×g for 20 minutes at 4° C. This supernatant was discarded and the cell pellet resuspended in TEE buffer+Complete and homogenized in a glass dounce for 12 strokes. This suspension was centrifuged at 20,000×g for 20 minutes at 4° C. and the supernatant discarded. The pellet was resuspended in assay buffer (50 mM Tris, 100 mM NaCl, 1 mM EDTA) containing one protease inhibitor cocktail tablet per 50 mL, and can be flash frozen as 1 mL aliquots at this point.
Dry compounds were diluted as 10 mM DMSO stocks and tested in a seven-point, three-fold dilution series run in triplicate beginning at 10 μM, final concentration. A 1 mM DMSO intermediate stock was made in a dilution plate and from this the seven dilutions were made to 5× the final concentration in assay buffer containing 0.02% BSA.
To a polypropylene assay plate (Costar # 3365) the following were added: a) 30 μL of assay buffer containing one protease inhibitor cocktail tablet per 50 mL; b) 30 μL of 1 nM ^33P 2MeS-ADP made in assay buffer containing 0.02% BSA and 12.5 mg/mL ascorbic acid; 30 μL of cold 1.5 μM 2MeS-ADP for the positive control wells, or assay buffer containing 0.02% BSA and 12.5 mg/mL ascorbic acid for the negative control wells, or 5× drug dilution; and 60 μL of 1 ug/well membranes.
The plates were incubated at room temperature for 1 hour. The reaction was stopped using a cell harvester to transfer the reaction mixture onto GF/B UniFilter plates (Perkin Elmer # 6005177), and washed three times with wash buffer (50 mM Tris), filtering between each wash. The filter plates were dried for approximately 20 minutes in an oven at 50° C. Back seals were adhered to the filter plates and 25 uL of Microscint 20 scintillation fluid (Perkin Elmer # 6013621) were added. The filter plates were sealed, shaken for 30 minutes, and counted on a Top Count. Data were analyzed using a four-parameter curve fit with a fixed minimum and maximum experimentally defined as the average positive and negative controls on each plate, and with a hill slope equal to one.

P2Y12 receptor [2] = biological target: T1, P2Y12 receptor; assay: Inhibition of [33P]2MeS-ADP binding to washed human platelet membranes (Assay 1); set-up: the P2Y12 receptor, which is found on the surface of platelets; tissue Interstate Blood bank, Memphis, Tenn; host or cells: human platelets from platelet rich plasma; conditions: for inhibition at 10 µM: highest concentration tested 10 μM; for IC50 / Ki: washed human platelet membranes
Procedure: 1. Inhibition of [^33P]2MeS-ADP Binding to Washed Human Platelet Membranes. The ability of a test compound to bind to the P2Y12 receptor was evaluated in a platelet membrane binding assay. In this competitive binding assay, the test compound competed against a radiolabelled agonist for binding to the P2Y12 receptor, which is found on the surface of platelets. Inhibition of binding of the labeled material was measured and correlated to the amount and potency of the test compound. Data from this assay are presented in Table F. Platelet rich plasma (“PRP”) was obtained from the Interstate Blood bank, Memphis, Tenn. Platelet rich plasma was prepared from blood units collected in ACD ((prepared by (1) combining: 2.5 g sodium citrate (Sigma S-4641); 1.5 g citric acid (Sigma C-0706); and, 2.0 g dextrose (Sigma G-7528); (2) bringing pH to 4.5; and (3) adding water to bring volume to 100 mL) and using the light spin protocol; this protocol involves centrifugation at room temperature for approximately 20 minutes at speeds up to 160×g. Platelet rich plasma is supplied in units of approximately 200 ml. Each unit is distributed into four 50 mL polypropylene conical tubes for centrifugation, Blood from each donor is maintained separately.
The 50 mL tubes were centrifuged for 15 minutes at 1100 rpm in Sorvall RT6000D (with H1000B rotor). Internal centrifuge temperature was maintained at approximately room temperature (22-24° C.). This spin pelleted cellular components remaining from the PRP preparation. The supernatant was decanted into fresh 50 mL tubes. To avoid carry over of cellular components following the room temperature centrifugation, approximately 5 mL of PRP was left in the tube and discarded. The tubes were capped and inverted 2-3 times and allowed to stand at room temperature for at least 15 minutes following inversion.
Optionally, a Coulter Counter may be used to count platelets from the resting samples during the resting phase. Normal human platelet counts are expected to range from 200,000 to 400,000 per μL of PRP supernatant.
The 50 mL tubes containing PRP supernatant were centrifuged for 15 minutes at 2300-2400 rpm to loosely pellet the platelets. The supernatant from this spin was decanted immediately into a clean cell culture bottle (Corning bottle) and saved in case further centrifugation was needed. The pellet of each tube was resuspended in 2-4 mL of Wash buffer (pH 6.5) (1 L prepared new daily—134 mM NaCl (Sigma S-5150); 3 mM KCl (Sigma P-9333); 1 mM CaCl2 (JT Baker 1311-01); 2 mM MgCl2 (Sigma M-2670); 5 mM glucose (EM 4074-2); 0.3 mM NaH2PO4 (Sigma S-9638)/12 mM NaHCO3 (J T Baker 3506-01); 5 mM HEPES pH 7.4 (Gibco 12379-012); 0.35% BSA (Sigma A-7906); 330 mg Heparin (bovine lung, Sigma H-4898); and 30 mL of ACD) by repeated gentle aspiration using disposable polypropylene sample pipettes.
Wash buffer (pH 6.5) was added to each tube to bring the volume to approximately 40 mL. Each tube was incubated for at least 15 minutes at 37° C.
The tubes were then centrifuged again for 15 minutes at 2300-2400 rpm to loosely pellet the platelets. The supernatant was decanted and discarded. The pellet was resuspended in 2-4 mL of Assay buffer (pH 7.4) (1 L volume—134 mM NaCl; 3 mM KCl; 1 mM CaCl2; 2 mM MgCl2; 5 mM glucose; 0.3 mM NaH2PO4/12 mM NaHCO3; 5 mM HEPES pH 7.4; and 0.35% BSA) by repeated aspiration using disposable polypropylene sample pipettes.
The pooled platelet preparation was counted using a Coulter Counter. The final concentration of platelets was brought to 1×10^6 per μL using Assay buffer pH 7.4. The platelets were rested for a minimum of 45 minutes at 37° C. before use in the assay.
In one embodiment, the compounds were tested in 96-well microtiter filterplates (Millipore Multiscreen-FB opaque plates, #MAFBNOB50). These plates were used in the assay and pre-wet with 50 μL of Assay buffer pH 7.4 then filtered through completely with a Millipore plate vacuum. […]

T1 sequence (Q9H244 whole entry): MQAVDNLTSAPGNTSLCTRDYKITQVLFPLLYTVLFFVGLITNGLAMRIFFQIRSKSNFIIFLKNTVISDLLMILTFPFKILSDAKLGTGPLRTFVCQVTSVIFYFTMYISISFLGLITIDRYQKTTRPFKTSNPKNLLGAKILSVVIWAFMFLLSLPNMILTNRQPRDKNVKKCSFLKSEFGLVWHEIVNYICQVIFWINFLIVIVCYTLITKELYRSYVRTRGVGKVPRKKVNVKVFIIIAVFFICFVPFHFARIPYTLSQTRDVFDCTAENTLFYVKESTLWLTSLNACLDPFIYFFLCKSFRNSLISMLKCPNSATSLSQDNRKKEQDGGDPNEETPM

SMILES | IC50 (P2Y12 receptor [1]) | Ki (P2Y12 receptor [1]) | inhibition at 10 µM (P2Y12 receptor [1]) [%] | [33P]-2MeS-ADP Binding to Recombinant Human P2Y12 Membranes (Assay 3) % Inhibition (P2Y12 receptor [1]) [%] | inhibition at 10 µM (P2Y12 receptor [2]) [%] | IC50 (P2Y12 receptor [2]) [nM] | Ki (P2Y12 receptor [2]) [nM]
CCOC(CCNc1nc(N2CCN(C(=O)c3ccc(-c4ccccc4)cc3)CC2)c2cc(CC)sc2n1)OCC [Example 22, 4-[4-(1,1′-Biphenyl-4-ylcarbonyl)piperazin-1-yl]-N-(3,3-diethoxypropyl)-6-ethylthieno[2,3-d]pyrimidin-2-amine] | 138 nM | 81 nM | 86 | – | – | – | –
CCc1cc2c(N3CCN(C(=O)CC(F)(F)F)CC3)nc(NC[C@@H](O)CO)nc2s1 [Example 36, (2R)-3-({6-Ethyl-4-[4-(3,3,3-trifluoropropanoyl)piperazin-1-yl]thieno[2,3-d]pyrimidin-2-yl}amino)propane-1,2-diol] | 1050 nM and 1940 nM | 557 nM and 1010 nM | 75.7 | 70.7 | – | – | –
CCc1cc2c(N3CCN(C(=O)Cc4ccccc4)CC3)nc(NCc3cccc(F)c3)nc2s1 [Example 14, 6-Ethyl-N-(3-fluorobenzyl)-4-[4-(phenylacetyl)piperazin-1-yl]thieno[2,3-d]pyrimidin-2-amine] | – | – | – | – | 39.9 | > 10000 | –
CCc1cc2c(N3CCN(C(=O)c4ccc(-c5ccccc5)cc4)CC3)nc(NCCC(=O)O)nc2s1 [Example 24, N-{4-[4-(1,1′-Biphenyl-4-ylcarbonyl)piperazin-1-yl]-6-ethylthieno[2,3-d]pyrimidin-2-yl}-beta-alanine] | 13.2 nM | 8 nM | 85 | – | – | – | –
CCc1cc2c(N3CCN(C(=O)c4cccc(-c5ccccc5)c4)CC3)nc(NC(CO)CO)nc2s1 [Example 32, 2-({4-[4-(1,1′-biphenyl-3-ylcarbonyl)piperazin-1-yl]-6-ethylthieno[2,3-d]pyrimidin-2-yl}amino)propane-1,3-diol] | 96 nM | 51 nM | 96.5 | – | – | – | –
CCc1cc2c(N3CCN(C(=O)Cc4ccccc4)CC3)nc(NC3CCCCC3)nc2s1 [Example 10, N-Cyclohexyl-6-ethyl-4-[4-(phenylacetyl)piperazin-1-yl]thieno[2,3-d]pyrimidin-2-amine] | – | – | – | – | 37.3 | > 10000 | –
CCc1cc2c(N3CCN(C(=O)c4ccc(-c5ccccc5)cc4)CC3)nc(NCCN(C)C)nc2s1 [Example 28, N′-{4-[4-(1,1′-biphenyl-4-ylcarbonyl)piperazin-1-yl]-6-ethylthieno[2,3-d]pyrimidin-2-yl}-N,N-dimethylethane-1,2-diamine] | 44 nM and 47 nM | 27 nM and 29 nM | 92.3 | 98.44 | – | – | –
CCc1cc2c(N3CCN(C(=O)c4ccc(-c5ccccc5)cc4)CC3)nc(NCCC(=O)NC(CO)CO)nc2s1 [Example 25, N^3-{4-[4-(1,1′-Biphenyl-4-ylcarbonyl)piperazin-1-yl]-6-ethylthieno[2,3-d]pyrimidin-2-yl}-N˜1˜-[2-hydroxy-1-(hydroxymethyl)ethyl]-beta-alaninamide] | 30 nM | 17 nM | 94 | – | – | – | –

Other lines, results leading:

IC50 (P2Y12 receptor [1]) | Ki (P2Y12 receptor [1]) | inhibition at 10 µM (P2Y12 receptor [1]) [%] | [33P]-2MeS-ADP Binding to Recombinant Human P2Y12 Membranes (Assay 3) % Inhibition (P2Y12 receptor [1]) [%] | inhibition at 10 µM (P2Y12 receptor [2]) [%] | IC50 (P2Y12 receptor [2]) [nM] | Ki (P2Y12 receptor [2]) [nM] | SMILES
– | – | – | – | 42.2 | 9850 | 9320 | CCc1cc2c(N3CCN(C(=O)Cc4ccccc4)CC3)nc(NCc3ccco3)nc2s1 [Example 8, 6-Ethyl-N-(2-furylmethyl)-4-[4-(phenylacetyl)piperazin-1-yl]thieno[2,3-d]pyrimidin-2-amine]
– | – | – | – | 37.4 | > 10000 | – | CCc1cc2c(N3CCN(C(=O)Cc4ccccc4)CC3)nc(NCCCc3ccccc3)nc2s1 [Example 7, 6-Ethyl-4-[4-(phenylacetyl)piperazin-1-yl]-N-(3-phenylpropyl)thieno[2,3-d]pyrimidin-2-amine]
– | – | – | – | 75 | 3400 | 3210 | CCc1cc2c(N3CCN(C(=O)Cc4ccccc4)CC3)nc(NCCCO)nc2s1 [Example 9, 3-({6-Ethyl-4-[4-(phenylacetyl)piperazin-1-yl]thieno[2,3-d]pyrimidin-2-yl}amino)propan-1-ol]
– | – | – | – | 43.6 | > 10000 | – | CCc1cc2c(N3CCN(C(=O)Cc4ccccc4)CC3)nc(NC3CCCC3)nc2s1 [Example 12, N-Cyclopentyl-6-ethyl-4-[4-(phenylacetyl)piperazin-1-yl]thieno[2,3-d]pyrimidin-2-amine]
